Data on three compounds can be found in US20050266105A1, “Compositions comprising natural agents for the treatment of HIV-associated opportunistic infections and complications and methods for preparing and using compositions comprising natural agents” (priority 2004, published 2005).

In brackets after ≈: the same amount, converted by molar mass. Like-named read-outs stand apart in the source and are kept apart here. Where only a bound is given, the exact number is not on record here.

For one series, the system named is HIV-1RF. As to the kind of experiment: HIV-1 cytoprotection assay. It counts as cell-based. The protocol:
ICBG plant samples were tested using an HIV-1 cytoprotection assay. This assay is based on the premise that HIV-1RF is cytopathic and kills CEM-SS cells as it replicates in the culture. Compounds that inhibit HIV-1 replication are therefore able to reduce the amount of viral cytopathic effect that occurs in the culture. As a result, compound activity is measured by determining the amount of cell viability remaining in the cultures following the six day incubation period. The % reduction in viral cytopathic effect is a direct measure of compound activity. The greater the % reduction in viral cytopathic effect, the greater the antiviral activity of the compound. […] Macroscopic observation of the cells in each well of the microtiter plate confirmed the cytotoxicity results obtained following staining of the cells with the MTS metabolic dye.

In another series the test system is CEM-SS cells. The series can be described thus: Compound cytotoxicity (cell viability in the absence of virus, MTS). Conditions: read-out: TC50 (the source's name). It counts as cell-based. On the procedure: Similarly, compound cytotoxicity is measured as the % reduction in cell viability resulting from incubation of the compound with the cells (in the absence of virus). The greater the reduction in cell viability, the greater the cytotoxicity of the compound. […] Macroscopic observation of the cells in each well of the microtiter plate confirmed the cytotoxicity results obtained following staining of the cells with the MTS metabolic dye.

The subject of a further series is MRSA. As to conditions: cited from earlier work.

Take `Cc1cn([C@H]2C[C@H](N=[N+]=[N-])[C@@H](CO)O2)c(=O)[nH]c1=O` [AZT]: in the series on HIV-1RF (HIV-1RF in CEM-SS cells, at concentrations tested), the “Antiviral activity (comments)” value is “expected level of antiviral activity”. For the same compound, in the series on HIV-1RF (HIV-1RF in CEM-SS cells, six day incubation), the IC50 was less than 2 nM. Further, the “AI (Antiviral Index)” value with HIV-1RF (TC50 / IC50) is more than 320. For the same compound, the CC50 in the series with CEM-SS cells is more than 500 nM.

In the case of `CC[C@H]1OC(=O)[C@H](C)[C@@H](O[C@H]2C[C@@](C)(OC)[C@@H](O)[C@H](C)O2)[C@H](C)[C@@H](O[C@@H]2O[C@H](C)C[C@H](N(C)C)[C@H]2O)[C@](C)(O)C[C@@H](C)C(=O)[C@H](C)[C@@H](O)[C@]1(C)O` [Erythromycin], the results for the minimal inhibitory concentration (MIC) with MRSA (MRSA strain 1199-B) and with MRSA (MRSA strain XU212) were 2 µg/mL (≈ 2.73 µM) and 4096 µg/mL (≈ 5580 µM), respectively.

Regarding `CCn1cc(C(=O)O)c(=O)c2cc(F)c(N3CCNCC3)cc21` [Norfloxacin], the minimal inhibitory concentration (MIC) with MRSA (MRSA strain 1199-B) was 64 µg/mL (≈ 200 µM); in the series on MRSA (MRSA strain XU212), 8 µg/mL (≈ 25.1 µM).
